# Data reported in a melting point compilation (Tetko et al.; mined from patent text by program, amines drawn as free bases though some values may be those of a salt).
row,Structure (SMILES),melting point [°C]
1,CCCN1CCc2[nH]c3ccc4scc(C)c4c3c2C1,169
2,C=C[C@H](O)[C@H](Cc1ccccc1)NC(=O)OC(C)(C)C,98 to 100
3,CC1SCCCNc2ccccc21 (stereo not given),72 to 74
4,O=C1C=CC2=C3OC=CC=C3C=CC2O1 (stereo not given),96 to 98
5,CC(C)(C)OC(=O)NC1CCN(CC(=O)O)C1=O (stereo not given),62 to 64
6,O=C(C=CC1CCCCC1)NCCc1cccc(OCc2ccccc2)c1,98 to 100
7,Cc1cccc(N)c1C=C(Br)Br,42 to 43
8,CC(=O)NC1Cc2ccc(CCN3CCN(c4nsc5ccccc45)CC3)cc2C1(C)C (stereo not given),62 to 72
9,COc1c(C=C[N+](=O)[O-])cc2c(c1OC)CCC2,104
10,CC(=O)OC1CSC(Oc2cccnc2-c2ccncc2)C(OC(C)=O)C1OC(C)=O (stereo not given),161
11,O=C(c1ccco1)N1CCN(c2cc(-c3ccc(F)cc3)c3c(n2)CCC3)CC1,165 to 166
12,Cc1cnc(N)c(S(N)(=O)=O)c1,187 to 189
13,Oc1ccc2nc(-c3ccccc3)cc(Cl)c2c1,180 to 181
14,COc1ccc2c(c1)Sc1c(cc(OC)c(O)c1Br)N2C(=O)OC(C)OC(=O)C(C)(C)C (stereo not given),85
15,CCc1cc(C)cc(CC)c1C(C(=O)NC)C(=O)NC,98 to 100
16,COc1ccc(O[C@@H]2COc3ccc(OCc4ccccn4)cc3[C@@H]2O)cc1 (relative stereo),117 to 118
17,O=C(O)c1cc(Cl)cc2c1CCCC2,130 to 140
18,CC(=O)SCC(C(=O)NC(Cc1ccc(O)cc1)C(=O)O)C(F)(F)F (stereo not given),170 to 173
19,NC(=O)c1nc2ccccc2cc1OCCCN1CCN(c2cccc3sccc23)CC1,153 to 154
20,O=C(Cc1ccnc2c1NC(=O)c1cccnc1N2C1CC1)c1ccccc1,195 to 197
21,CC(C)(C)c1ccc2oc(C(O)COc3ccc(C(=O)O)cc3)cc2c1 (stereo not given),175 to 177
22,CC(C)(COc1ccc(Cl)cc1)C(=O)C(Oc1ccc(Cl)cc1)n1ccnc1 (stereo not given),214 to 217
23,N#Cc1cccc2c1CN(C1CCC(=O)NC1=O)C2=O (stereo not given),312 to 314
24,CCSC1(CCO)C(=O)Nc2ccc(Cl)cc21 (stereo not given),132 to 135
25,CC(C)n1nc(-c2sc(NC(=O)NCc3ccccc3)nc2-c2ccccc2)ccc1=O,200 to 201

row,Structure (SMILES),melting point [°C]
1,O=C(O)CCP(=O)(O)CCC(=O)O,156 to 159
2,CCCc1nc2c(N)nc3cc(Oc4ccccc4C#N)ccc3c2n1CC(C)C,230 to 232
3,COc1c(C)c(NC(=O)CC(C)(C)C)c2c(c1C)C(c1ccc(C(C)C)cc1)C(C)(C)O2 (stereo not given),140 to 141
4,O=S1(=O)CC2C(C1)N(CCO)CCN2CCO (stereo not given),145 to 147
5,C[C@H](O)CNc1cc(Oc2ccc(F)cc2F)nc2[nH]nc(-c3ccccc3Cl)c12,238
6,CSc1ncc(Cc2ccc(Cl)cc2)c(=O)[nH]1,193 to 194
7,COC(=O)c1[nH]nc2c1C(C)Cc1cc(OC)ccc1-2 (stereo not given),163
8,Oc1cc2[nH]c3cc(O)c(O)cc3c2cc1O,> 300
9,Cc1ccccc1CC(=O)Nc1cc(C)c(S(=O)(=O)C[N+](=O)[O-])c(C)c1,188 to 190
10,Nc1cccc(C2=NNC(=O)Cc3cc4c(cc32)OCO4)c1,118 to 122
11,CCCCC1(CCCC)C(=O)N(C(C)(C)C)CC(C)(C)N1OC(C)(C)C#N,68 to 74
12,CC(=O)NCCS(=O)C1(Cl)CC2CC(=O)N2C1C(=O)OCc1ccccc1 (stereo not given),89 to 93
13,CC(C)(C)OC(=O)[C@H]1CCCN1S(=O)(=O)c1ccc2c(Br)cnc(Cl)c2c1,128 to 130
14,Cn1nnc(NC(=O)C2c3ccccc3Oc3ccccc32)n1,247
15,O=C(Nc1cc(-c2ccnc3c(C(=O)c4cccs4)cnn23)ccc1F)c1ccncc1,175 to 179
16,O=C1NC(=O)c2nc3ccccc3cc21,> 300
17,CCCCCCCNC(=O)Nc1ccccc1C(=O)N1CCCN(C(c2ccccc2)c2ccccc2)CC1,125
18,O=C1CC2CCc3ccc(Cl)cc3C2=NN1c1ccccc1 (stereo not given),120 to 122
19,O=c1[nH]c2cc(Br)ccc2c(=O)n1Cc1ccc(I)cc1F,303 to 304
20,CC(=O)Oc1cc(C(=O)Cc2ccccc2)cc([N+](=O)[O-])c1OC(C)=O,94 to 95
21,Cc1nc(N2C[C@@H](C)N(Cc3ccc(C(F)(F)F)cc3)C2=O)sc1C(N)=O,110 to 112
22,C=C(CCC)C(=O)c1ccc(OC2(C(=O)O)CCC2)c(Cl)c1Cl,105 to 106
23,Cc1oc(C=Cc2cccc(Cl)c2)nc1C(=O)O,213 to 214
24,NC(Cc1ccccc1)C(=O)NC1N=C(c2ccccc2)c2ccccc2NC1=O (stereo not given),208 to 210
25,CCOC(=O)CC(=O)c1ccc(CCNC(C)=O)cc1,89 to 92

row,Structure (SMILES),melting point [°C]
1,COc1ccccc1OCC(O)CNc1nc(-c2ccccc2)nc2ccccc12 (stereo not given),138 to 140
2,CS(=O)(=O)c1cccc(C(Cc2ccc(F)cc2)C(=O)Nc2nc3ccccc3o2)c1 (stereo not given),99 to 100
3,CCSc1nc(=O)[nH]cc1C,181 to 184
4,Oc1ccccc1-c1cc(Oc2ccc3cccnc3c2)ncn1,188 to 191
5,N#CCCNC(=O)c1cccc(-c2cccc3nn(Cc4ccc(F)c(Cl)c4)cc23)c1,165 to 166
6,O=C(O)c1ccccc1-c1ccc(CO)cc1,140 to 142
7,Cc1nc2c(O[C@@H]3c4ccccc4C[C@H]3O)cc(C(=O)N(C)C)cn2c1C (relative stereo),122
8,CSCC(=O)Nc1cc(-c2c(-c3ccc(F)c(C)c3)nc3cccnn23)ccn1,155 to 156
9,CC(=O)N1CCN=C1COc1cccc(C)c1C,127 to 130
10,CNC(=O)[C@@H]1C[C@@H](OCc2ccccc2)CN1S(=O)(=O)c1ccc(Cl)c(COc2cccc3c(-n4ccnc4)cc(C)nc23)c1Cl,100
11,CN1CCC(=O)N(c2cccc3ccccc23)C1=O,228 to 229
12,O=C(C(Cl)Cl)N1CCC2(CC1)OCCO2,102
13,CCN(C(=O)C1CC1)c1cn(-c2cccnc2)nc1Cl,111 to 119
14,OC1CSC(Oc2cccc3conc23)C(O)C1O (stereo not given),115
15,Cc1cc(C#N)cc(C(=O)Nc2nc(C)cs2)n1,211
16,C[C@H]1Oc2ccc(F)cc2NC(=O)[C@H]1NC(=O)OC(C)(C)C,141 to 148
17,CC(C)(CO)NS(=O)(=O)c1cccc(Br)c1,138
18,CCOC(=O)c1csc(C2OC(CO)C(O)C2O)n1 (stereo not given),62 to 64
19,CC(Nc1ccc(Cc2ccccc2)cc1)C(=O)O (stereo not given),119
20,Cc1noc(C)c1-c1cn(Cc2ccccc2)c(=O)c2cccnc12,192 to 195
21,CCn1nnc(NC(=O)C2c3ccccc3COc3ccccc32)n1 (racemic),158 to 159
22,O=C1CN=C(c2ccccc2)c2cc(NO)ccc2N1,186 to 187
23,COc1ccc(F)c2c1C[C@@H](NO)CO2,111 to 113
24,Cc1cc(-c2ccc(NS(C)(=O)=O)cc2)cc2ccc(=O)[nH]c12,340 to 343
25,Nc1ccc(OCc2ccc(F)cc2)cc1F,42 to 43
